Results: the supplement of paper PMC10307832

Experiments:
Experiment in all cases: relative viability (nuclei count vs DMSO), 5 days (fraction); higher = more cells survive
[1] = compound: CC[C@H](C)N1C=C(C2=C(C=C(C=C21)C3=CN=C(C=C3)N4CCNCC4)C(=O)NCC5=C(C=C(NC5=O)C)C)C [GSK126] + Cc1nc(Nc2ncc(C(=O)Nc3c(C)cccc3Cl)s2)cc(N2CCN(CCO)CC2)n1 [Dasatinib] (partner 0.075 µM)
Outline: (§1)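 Relative viability equals treated-well nuclei counts divided by vehicle-well nuclei counts. Counts came from 4× images of lung cancer cell lines grown in 1536-well plates for 5 days after pin-tool dosing on the day after seeding. Dosing used one drug alone or a fixed anchor-drug dose plus five library-drug doses (not always all listed) in √10 steps, and values are medians of duplicate plates.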

[2] = compound: C1CC(C1)(C(=O)O)C(=O)O.[NH2-].[NH2-].[Pt+2] [Carboplatin] + Nc1ncn([C@H]2C[C@H](O)[C@@H](CO)O2)c(=O)n1 [Decitabine] (partner 2 µM)
Outline: as §1

[3] = compound: NS(=O)(=O)OC[C@@H]1C[C@@H](n2ccc3c(N[C@H]4CCc5ccccc54)ncnc32)C[C@@H]1O [MLN4924] + CC(C)C[C@H](NC(=O)[C@H](Cc1ccccc1)NC(=O)c1cnccn1)B(O)O [Bortezomib] (partner 0.002 µM)
Outline: as §1

[4] = compound: NS(=O)(=O)OC[C@@H]1C[C@@H](n2ccc3c(N[C@H]4CCc5ccccc54)ncnc32)C[C@@H]1O [MLN4924] + CC(=O)Nc1cccc(-n2c(=O)n(C3CC3)c(=O)c3c(Nc4ccc(I)cc4F)n(C)c(=O)c(C)c32)c1 [Trametinib] (partner 0.02 µM)
Outline: as §1

Row | Cell Line | relative viability ([1]; first compound 0.08 µM) | relative viability ([1]; first compound 0.253 µM) | relative viability ([1]; first compound 0.8 µM) | relative viability ([1]; first compound 2.53 µM) | relative viability ([1]; first compound 8 µM) | relative viability ([2]; first compound 0.08 µM) | relative viability ([2]; first compound 0.253 µM) | relative viability ([2]; first compound 0.8 µM) | relative viability ([2]; first compound 2.53 µM) | relative viability ([2]; first compound 8 µM) | relative viability ([3]; first compound 0.04 µM) | relative viability ([3]; first compound 0.1265 µM) | relative viability ([3]; first compound 0.4 µM) | relative viability ([3]; first compound 1.265 µM) | relative viability ([3]; first compound 4 µM) | relative viability ([4]; first compound 0.04 µM) | relative viability ([4]; first compound 0.1265 µM) | relative viability ([4]; first compound 0.4 µM) | relative viability ([4]; first compound 1.265 µM) | relative viability ([4]; first compound 4 µM)
1 | NCI-H1651 | 0.534 | 0.427 | 0.363 | 0.443 | 0.45 | 0.773 | 0.633 | 0.589 | 0.574 | 0.509 | 0.936 | 0.99 | 0.966 | 0.498 | 0.181 | 0.799 | 0.853 | 0.81 | 0.512 | 0.185
2 | LC-2-ad | 0.606 | 0.66 | 0.565 | 0.643 | 0.585 | 0.753 | 0.93 | 0.708 | 0.776 | 0.64 | 0.943 | 0.859 | 0.41 | 0.226 | 0.104 | 0.95 | 0.827 | 0.701 | 0.541 | 0.305
3 | NCI-H1734 | 0.573 | 0.505 | 0.463 | 0.467 | 0.449 | 0.485 | 0.46 | 0.483 | 0.465 | 0.438 | 0.817 | 0.602 | 0.251 | 0.134 | 0.118 | 0.705 | 0.715 | 0.181 | 0.123 | 0.126
4 | NCI-H460 | 0.562 | 0.483 | 0.455 | 0.421 | 0.569 | 0.461 | 0.476 | 0.481 | 0.298 | 0.149 | 0.998 | 1.1 | 1.04 | 0.203 | 0.0203 | 0.3 | 0.205 | 0.332 | 0.0885 | 0.0366
5 | NCI-H838 | 0.344 | 0.308 | 0.313 | 0.266 | 0.209 | 0.479 | 0.492 | 0.425 | 0.412 | 0.386 | 0.807 | 0.456 | 0.315 | 0.0967 | 0.122 | 0.438 | 0.331 | 0.172 | 0.0938 | 0.126
6 | NCI-H2347 | 0.257 | 0.331 | 0.347 | 0.305 | 0.304 | 0.615 | 0.428 | 0.621 | 0.653 | 0.552 | 0.79 | 0.933 | 0.532 | 0.392 | 0.395 | 0.312 | 0.32 | 0.284 | 0.265 | 0.293
7 | NCI-H647 | 0.193 | 0.206 | 0.171 | 0.111 | 0.179 | 0.45 | 0.305 | 0.286 | 0.292 | 0.306 | 0.583 | 0.425 | 0.149 | 0.0614 | 0.0695 | 0.576 | 0.538 | 0.25 | 0.0717 | 0.072
8 | NCI-H520 | 0.184 | 0.172 | 0.185 | 0.19 | 0.238 | 0.551 | 0.545 | 0.449 | 0.457 | 0.438 | 0.424 | 0.272 | 0.341 | 0.131 | 0.141 | 0.527 | 0.396 | 0.346 | 0.149 | 0.168
